Results reported in publication PMC8009520, “Exploration of TRPM8 Binding Sites by β-Carboline-Based Antagonists and Their In Vitro Characterization and In Vivo Analgesic Activities” (Journal of Medicinal Chemistry, 2020).
Read-outs that look alike come from different tables or passages of the source.

How the values were obtained:
[1] = target: T1, rat isoform of TRPM8 channels (Rattus norvegicus, UniProt Q8R455); assay: Ca2+ fluorimetric assay, menthol-activated channel; assay type: cell-based
T1 construct: expressed in transfected cells
T1 sequence (Q8R455 whole entry, canonical isoform): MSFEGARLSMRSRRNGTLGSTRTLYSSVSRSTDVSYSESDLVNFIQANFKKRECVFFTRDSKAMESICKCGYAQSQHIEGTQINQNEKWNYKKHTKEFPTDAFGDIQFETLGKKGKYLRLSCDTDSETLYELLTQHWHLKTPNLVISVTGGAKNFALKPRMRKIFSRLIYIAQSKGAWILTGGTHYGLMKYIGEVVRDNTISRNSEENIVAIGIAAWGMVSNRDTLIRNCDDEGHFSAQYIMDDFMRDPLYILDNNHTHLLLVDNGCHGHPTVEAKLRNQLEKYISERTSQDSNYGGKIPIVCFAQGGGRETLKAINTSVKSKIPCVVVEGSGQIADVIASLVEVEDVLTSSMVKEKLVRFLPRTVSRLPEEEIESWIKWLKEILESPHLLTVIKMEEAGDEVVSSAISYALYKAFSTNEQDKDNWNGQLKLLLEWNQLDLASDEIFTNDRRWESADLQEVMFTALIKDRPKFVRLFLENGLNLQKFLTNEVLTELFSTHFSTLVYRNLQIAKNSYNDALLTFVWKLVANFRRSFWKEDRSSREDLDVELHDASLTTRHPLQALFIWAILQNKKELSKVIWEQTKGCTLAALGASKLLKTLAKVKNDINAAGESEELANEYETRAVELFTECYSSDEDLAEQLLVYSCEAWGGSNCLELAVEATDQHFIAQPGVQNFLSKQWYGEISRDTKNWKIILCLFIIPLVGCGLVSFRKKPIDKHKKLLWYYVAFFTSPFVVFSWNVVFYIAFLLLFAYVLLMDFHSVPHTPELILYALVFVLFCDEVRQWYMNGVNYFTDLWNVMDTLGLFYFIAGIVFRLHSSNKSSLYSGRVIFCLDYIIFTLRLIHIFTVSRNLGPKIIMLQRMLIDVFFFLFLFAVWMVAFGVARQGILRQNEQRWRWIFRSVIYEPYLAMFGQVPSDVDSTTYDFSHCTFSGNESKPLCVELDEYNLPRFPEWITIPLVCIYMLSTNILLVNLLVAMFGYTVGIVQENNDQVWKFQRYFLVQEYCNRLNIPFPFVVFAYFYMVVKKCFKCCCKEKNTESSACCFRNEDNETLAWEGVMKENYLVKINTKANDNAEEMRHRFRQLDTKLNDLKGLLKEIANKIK
Experimental: TRPM8 blocker activity of all synthesized compounds was tested by Ca^2+ fluorimetric assays using HEK-293 cells stably expressing the rat isoform of TRPM8 channels, using menthol and AMTB as prototypical agonist and antagonist, respectively.
For measurement of the potency of the compounds, fluorimetric experiments were performed using HEK-293 cells (CRL-1573TM, American Type Culture Collection, LGC Promochem, Molsheim, France) that stably express rat TRPM8. The cells were seeded in 96-well plates (Corning Incorporated, Corning, NY) at a cell density of 40 000 cells 2 days before treatment. On the day of treatment, the medium was replaced with 100 μL of the dye loading solution Fluo-4 NW supplemented with probenecid 2.5 mM.
The tested molecules dissolved in DMSO were added at the desired concentrations, and the plates were incubated in darkness at 37 °C in a humidified atmosphere of 5% CO2 for 60 min. The fluorescence was measured using instrument settings appropriate for excitation at 485 nm and emission at 535 nm (POLARstar Omega BMG LABtech). A baseline recording of four cycles was recorded prior to stimulation with the agonist (100 μM menthol for TRPM8). The TRPM8 antagonist, 10 μM AMTB, was added to the medium containing the corresponding agonist to induce channel blockade. The changes in fluorescence intensity were recorded during 15 cycles more. The higher concentration of DMSO used in the experiment was added to the control wells. The cells’ fluorescence was measured before and after the addition of various concentrations of test compounds. The fluorescence values obtained are normalized to that prompted by the corresponding agonist (for channel activating compounds) or upon agonist and antagonist coexposure (for channel blocker compounds).

[2] = target: T2, human TRPM8 (Homo sapiens, UniProt Q7Z2W7); assay: cell-based; conditions: HEK293, read-out: % Inhibition 300 μM menthol-evoked currents at 300 nM compounds, HEK-293 cells expressing human TRPM8, compound 300 nM
T2 sequence (Q7Z2W7 whole entry): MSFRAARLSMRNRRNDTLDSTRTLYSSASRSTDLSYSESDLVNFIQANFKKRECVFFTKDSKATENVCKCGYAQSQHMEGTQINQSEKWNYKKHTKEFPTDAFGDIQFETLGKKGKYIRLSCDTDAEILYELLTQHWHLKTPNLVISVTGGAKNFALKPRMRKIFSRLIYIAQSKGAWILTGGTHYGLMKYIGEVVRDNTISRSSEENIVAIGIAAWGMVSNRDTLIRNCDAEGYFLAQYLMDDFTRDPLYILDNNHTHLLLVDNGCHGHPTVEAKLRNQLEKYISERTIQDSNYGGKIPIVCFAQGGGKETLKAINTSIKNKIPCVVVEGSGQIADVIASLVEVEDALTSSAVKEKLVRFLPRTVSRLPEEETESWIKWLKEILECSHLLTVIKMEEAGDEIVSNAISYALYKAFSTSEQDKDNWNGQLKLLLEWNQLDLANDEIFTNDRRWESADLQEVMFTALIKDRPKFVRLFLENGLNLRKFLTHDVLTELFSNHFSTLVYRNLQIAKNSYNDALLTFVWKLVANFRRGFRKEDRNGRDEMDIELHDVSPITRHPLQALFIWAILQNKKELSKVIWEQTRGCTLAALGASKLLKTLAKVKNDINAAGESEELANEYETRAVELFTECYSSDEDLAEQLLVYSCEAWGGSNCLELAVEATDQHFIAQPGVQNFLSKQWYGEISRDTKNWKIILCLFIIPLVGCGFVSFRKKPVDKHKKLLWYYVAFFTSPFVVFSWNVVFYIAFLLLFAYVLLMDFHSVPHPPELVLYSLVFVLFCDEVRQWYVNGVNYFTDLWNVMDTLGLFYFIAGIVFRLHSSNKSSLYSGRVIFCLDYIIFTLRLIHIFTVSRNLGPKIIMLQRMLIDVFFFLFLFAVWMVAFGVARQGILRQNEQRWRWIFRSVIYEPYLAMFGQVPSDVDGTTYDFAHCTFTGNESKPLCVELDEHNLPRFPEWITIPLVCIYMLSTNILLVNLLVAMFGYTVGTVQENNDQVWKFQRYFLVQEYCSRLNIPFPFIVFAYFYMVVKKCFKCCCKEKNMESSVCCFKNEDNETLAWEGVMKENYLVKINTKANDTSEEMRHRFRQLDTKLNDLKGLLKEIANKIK

[3] = target: T2, human TRPM8; conditions: HEK-293 cells expressing human TRPM8, compound 300 nM
[4] = test system: C57/BL6 mice; assay: Oxaliplatin-induced cold allodynia, acetone drop method; assay type: in vivo
Experimental: This effect was still evident 30 min after administration of a 30 μg dose (Figure 6).
Data are given as the mean ± SEM n = 6. Statistical analysis was two-way ANOVA followed by post hoc Bonferroni test by multiple comparison: ***p < 0.001, ****p < 0.0001.
For the oxaliplatin-induced neuropathic pain assay, oxaliplatin (Tocris) was dissolved in water with gentle warming and was subcutaneously (sc) injected on days 1, 3, and 5 at a 6 mg/kg dose. The day 7 after administration, experiments were performed. Together with oxaliplatin injection, saline and a 5% mannitol solution were intraperitoneally injected to prevent kidney damage and dehydration. 31a stock was prepared in DMSO (Sigma-Aldrich) and diluted in saline for injections.
Cold chemical thermal sensitivity was assessed using acetone drop method.[18b] Mice were placed in a metal mesh cage and allowed to habituate for approximately 30 min in order to acclimatize them. Freshly dispensed acetone drop (10 μL) was applied gently onto the mid-plantar surface of the hind paw. Cold chemical sensitive reaction with respect to paw licking was recorded as a positive response (nociceptive pain response). The responses were measured for 20 s with a digital stopwatch. For each measurement, the paw was sampled twice and the mean was calculated. The interval between each application of acetone was approximately 5 min.

[5] = test system: Swiss CD1 mice; assay: CCI neuropathic pain model, thermal gradient ring; assay type: in vivo
Text: Further we investigated the efficacy of 31a in a chronic constriction injury (CCI) model of neuropathic pain, using a thermal gradient ring assay. This assay deeply differs from the canonical reflexive measures of nociception, in which the end point is withdrawal to a noxious stimulus, a fact that has been questioned during the past years for their unsatisfactory translation.[34] In particular, this test integrates information on temperature perception distinguishing exploratory behavior from thermal preference behavior.[35a]
The mean temperature to which the sham animal located during the observation time was 27.9 °C ± 0.35 °C (Figure 7A), and no statistical differences were evidenced at the different time points (Figure 7B). […] It is questionable why this transient effect was recorded, but it must be considered that TRPM8 antagonists are able to decrease the body temperature.
Neuropathic pain behavior was induced by ligation of the sciatic nerve as described previously.[27d] […] Drug effects were evaluated 7 and 14 days after ligation.
We utilized the thermal gradient ring from Ugo-Basile previously using a modified protocol from Touska et al., 2016.[35] […] On day 2, mice were injected and 30 min after were placed in the apparatus and measured for 60 min using 15–40 °C. […]

[6] = target: T3, hTRPV1 (Homo sapiens, UniProt Q8NER1); assay: Selectivity fluorimetric assay, CHO-K1 cells; assay type: cell-based; conditions: capsaicine as reference agonist
T3 construct: expressed in transfected cells; host or cells: CHO-K1, stably transfected
T3 sequence (Q8NER1 whole entry): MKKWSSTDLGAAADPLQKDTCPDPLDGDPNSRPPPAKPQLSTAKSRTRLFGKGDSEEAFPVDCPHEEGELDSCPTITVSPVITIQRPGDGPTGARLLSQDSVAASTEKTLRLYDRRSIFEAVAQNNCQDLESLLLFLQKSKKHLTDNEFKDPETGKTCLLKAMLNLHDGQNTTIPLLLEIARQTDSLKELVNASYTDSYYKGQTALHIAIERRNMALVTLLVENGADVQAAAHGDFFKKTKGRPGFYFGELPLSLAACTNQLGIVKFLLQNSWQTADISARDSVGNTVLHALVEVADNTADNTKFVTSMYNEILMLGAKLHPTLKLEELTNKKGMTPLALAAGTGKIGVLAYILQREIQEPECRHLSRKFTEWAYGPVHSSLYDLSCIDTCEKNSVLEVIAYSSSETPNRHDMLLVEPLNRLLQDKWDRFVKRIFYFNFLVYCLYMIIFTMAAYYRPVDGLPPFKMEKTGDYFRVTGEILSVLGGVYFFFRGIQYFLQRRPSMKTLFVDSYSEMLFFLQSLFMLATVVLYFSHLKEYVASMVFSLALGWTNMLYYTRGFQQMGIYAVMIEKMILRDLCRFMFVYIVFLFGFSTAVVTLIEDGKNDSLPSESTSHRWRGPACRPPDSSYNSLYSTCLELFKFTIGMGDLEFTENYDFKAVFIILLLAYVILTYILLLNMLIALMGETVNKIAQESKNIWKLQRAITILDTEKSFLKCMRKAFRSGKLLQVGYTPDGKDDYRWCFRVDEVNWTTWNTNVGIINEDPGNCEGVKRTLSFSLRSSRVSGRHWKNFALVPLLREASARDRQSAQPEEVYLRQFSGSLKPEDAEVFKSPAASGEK

[7] = In vitro metabolic stability using liver microsomes; assay type: in vitro ADME, human; conditions: protocol II, NADPH and UDP-GlcUA, 37 °C, 60 min
Experimental: Compound 4 was used as reference, considering that its main pitfall was represented by metabolic instability that the newly synthesized compounds were aimed in overcoming. […] Each sample (2.5 mM) was incubated with 100 mM phosphate buffer (pH 7.4) and 20 mg/mL of liver microsomes (Thermo Fisher Scientific, Bremen, Germany). After preincubation in water bath for 5 min, the mixture was incubated with 20 mM NADPH (protocol I) at 37 °C for 60 min in a Thermomixer comfort (Eppendorf, Hamburg, Germany). For the measurement of UGT activity the microsomes were preincubated with alamethicin, which forms pores in microsomal membranes, promoting access of substrate and cofactor to UGT enzymes. Subsequently, each sample was incubated with 100 mM phosphate buffer, 500 mM magnesium chloride, 10 mM NADPH, and 20 mM UDP-GlcUA at 37 °C for 60 min. Finally, the reactions from both protocols (protocols I and II) were stopped by the addition of 200 μL of ice-cold methanol, and then samples were centrifuged at 10 000 rpm at 25 °C for 5 min (Eppendorf microcentrifuge 5424, Hamburg, Germany). The supernatants were collected and injected in UHPLC-PDA. The control at 0 min was obtained by addition of the organic solvent immediately after incubation with microsomes. […] The extent of metabolism is expressed as a percentage of the parent compound turnover using the following equation, as previously described:[43] […]

[8] = target: T4, hTRPA1 (Homo sapiens, UniProt O75762); assay: Selectivity fluorimetric assay, HEK-293 cells; assay type: cell-based; conditions: AITC as reference agonist
T4 construct: expressed in transfected cells; host or cells: HEK-293, stably transfected
T4 sequence (O75762 whole entry): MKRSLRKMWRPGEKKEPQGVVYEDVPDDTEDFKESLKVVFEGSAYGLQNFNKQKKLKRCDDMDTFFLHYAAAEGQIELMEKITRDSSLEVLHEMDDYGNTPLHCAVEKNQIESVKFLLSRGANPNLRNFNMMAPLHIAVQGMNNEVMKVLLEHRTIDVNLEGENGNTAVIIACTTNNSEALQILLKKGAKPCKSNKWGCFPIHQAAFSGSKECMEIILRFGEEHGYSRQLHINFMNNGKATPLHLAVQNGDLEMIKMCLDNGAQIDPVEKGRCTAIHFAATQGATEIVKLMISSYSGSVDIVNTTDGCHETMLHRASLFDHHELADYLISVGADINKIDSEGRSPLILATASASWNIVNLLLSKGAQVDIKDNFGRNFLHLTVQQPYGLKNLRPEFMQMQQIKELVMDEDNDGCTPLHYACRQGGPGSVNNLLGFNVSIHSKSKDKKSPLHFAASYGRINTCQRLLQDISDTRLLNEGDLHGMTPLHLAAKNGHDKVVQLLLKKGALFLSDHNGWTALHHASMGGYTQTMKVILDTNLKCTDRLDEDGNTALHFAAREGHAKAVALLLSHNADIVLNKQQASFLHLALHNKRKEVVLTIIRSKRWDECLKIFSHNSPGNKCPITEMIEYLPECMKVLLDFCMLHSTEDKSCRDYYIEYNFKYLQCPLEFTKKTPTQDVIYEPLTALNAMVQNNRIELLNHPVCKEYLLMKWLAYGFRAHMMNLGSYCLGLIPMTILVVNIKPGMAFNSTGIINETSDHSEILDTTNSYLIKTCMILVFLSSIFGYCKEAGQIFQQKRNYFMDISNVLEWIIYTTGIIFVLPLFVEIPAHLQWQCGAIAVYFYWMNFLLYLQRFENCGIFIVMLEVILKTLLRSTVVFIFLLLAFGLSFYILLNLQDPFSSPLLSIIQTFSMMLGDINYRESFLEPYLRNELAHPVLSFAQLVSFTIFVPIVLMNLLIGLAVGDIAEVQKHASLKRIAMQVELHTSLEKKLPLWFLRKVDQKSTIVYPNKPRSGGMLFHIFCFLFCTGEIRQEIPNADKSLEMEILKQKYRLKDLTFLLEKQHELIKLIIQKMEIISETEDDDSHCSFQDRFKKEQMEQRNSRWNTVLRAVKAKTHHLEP

[9] = target: T5, hNav1.7 (Homo sapiens, UniProt Q15858); assay: Selectivity fluorimetric assay, HEK-293 cells; assay type: cell-based; conditions: veratridine as reference agonist
T5 construct: expressed in transfected cells; host or cells: HEK-293, stably transfected

[10] = test system: TRPM8; design: method as in PMID 26847872, PMID 25125580; conditions: patch-clamp recordings; 18b; cited from earlier work
[11] = HEK-293 cells stably expressing rat TRPM8, menthol as agonist, mean ± SD of at least three measurements, read-out: IC50
[12] = Table 2, Ca2+ fluorimetric assay, read-out: IC50 Ca2+

Row | SMILES | IC50 [1, 11] [µM] | IC50 [1, 12] [µM] | inhibition at 0.3 µM [2] [%] | % Inhibition 300 μM menthol-evoked currents at 300 nM compounds [3] [%] | inhibition of OXP-induced cold allodynia (paw licking) ([4]; 1 μg sc, single administration) | inhibition of OXP-induced cold allodynia (paw licking) ([4]; 10 μg sc) | inhibition of OXP-induced cold allodynia (paw licking) ([4]; 30 μg sc) | inhibition of OXP-induced cold allodynia 30 min after administration ([4]; 30 μg sc, 30 min) | time of maximum inhibitory effect ([4]; 10 and 30 μg sc) [min] | rTRPM8 IC50 (calcium microfluorimetric assays) ([1]; supplementary xlsx) [µM] | mean preferred temperature ([5]; CCI mice 14 days after ligation, 11.5 mg/kg ip, gradient 15-40 °C) [°C] | effect on temperature preferences ([5]; sham-mice) | activity as agonist or antagonist on TRPV1 [6] | metabolic turnover, phase I + phase II [7] [%] | activity as agonist or antagonist on TRPA1 [8] | activity as agonist or antagonist on Nav1.7 [9] | IC50 [10] [µM]
1 | O=C(O)CC[C@H]1N[C@H](C(=O)NCc2ccc(F)cc2)Cc2c1[nH]c1ccccc21 [12a, 3-((1R,3S)-3-((4-Fluorobenzyl)carbamoyl)-2,3,4,9-tetrahydro-1H-pyrido[3,4-b]indol-1-yl)propanoic Acid] | 5 ± 1.2 | 5 ± 1.2 | 34 | 34.1±9.6 | – | – | – | – | – | – | – | – | – | – | – | – | –
2 | O=C1[C@@H]2Cc3c([nH]c4ccccc34)[C@@H](c3ccc(Cl)cc3)N2C(=O)N1Cc1ccc(F)cc1 [31a, (5R,11aS)-5-(4-Chlorophenyl)-2-(4-fluorobenzyl)-5,6,11,11a-tetrahydro-1H-imidazo[1′,5′:1,6]pyrido[3,4-b]indole-1,3(2H)-dione] | 0.5 ± 0.3 | >30 | – | – | not effective | remarkable inhibitory effect | remarkable inhibitory effect | still evident | 15 | > 30 | 33.30 | No effects | no activity as agonists or antagonists | 46.0 ± 2.3 | no activity as agonists or antagonists | no activity as agonists or antagonists | –
3 | c1ccc(CN(CCc2c[nH]c3ccccc23)Cc2ccccc2)cc1 [compound 3] | – | – | – | – | – | – | – | – | – | – | – | – | – | – | – | – | 0.367
